Measured values published in PMC5218480 (PLoS ONE, 2017).

Test system: MV-4-11 cells
Assay: Gene expression microarray analysis (Affymetrix PrimeView) and GSEA
Type: cell-based, human
Design: RFU PODN (11730768_x_at) / Fold change /veh PODN (11730768_x_at) / RFU LINC00158 (11744669_a_at) / Fold change /veh LINC00158 (11744669_a_at) / RFU DUSP10 (11751237_a_at) / Fold change /veh DUSP10 (11751237_a_at) / RFU ID3 (11757404_x_at) / Fold change /veh ID3 (11757404_x_at) / RFU PLEKHG5 (11737974_s_at) / Fold change /veh PLEKHG5 (11737974_s_at) / RFU LRRC4B (11730491_at) / Fold change /veh LRRC4B (11730491_at) / RFU GIMAP4 (11747438_a_at) / Fold change /veh GIMAP4 (11747438_a_at) / RFU KRT8 (11758183_x_at) / Fold change /veh KRT8 (11758183_x_at) / RFU CNN1 (11734310_a_at) / Fold change /veh CNN1 (11734310_a_at) / RFU VPS37D (11726825_at) / Fold change /veh VPS37D (11726825_at) / RFU C10orf10 (11716522_x_at) / Fold change /veh C10orf10 (11716522_x_at) / RFU KIR2DL2 /// KIR2DL4 /// KIR2DL5A /// KIR2DL5B /// KIR2DS1 /// KIR2DS2 /// KIR2DS3 /// KIR2DS4 /// KIR3DL3 /// KIR3DL3 /// KIR3DS1 (11738374_at) / Fold change /veh KIR2DL2 /// KIR2DL4 /// KIR2DL5A /// KIR2DL5B /// KIR2DS1 /// KIR2DS2 /// KIR2DS3 /// KIR2DS4 /// KIR3DL3 /// KIR3DL3 /// KIR3DS1 (11738374_at) / RFU C1QL1 (11718748_at) / Fold change /veh C1QL1 (11718748_at) / RFU TMPRSS4 (11747572_a_at) / Fold change /veh TMPRSS4 (11747572_a_at) / RFU HAMP (11756126_x_at) / Fold change /veh HAMP (11756126_x_at) / RFU RNFT2 (11725882_a_at) / Fold change /veh RNFT2 (11725882_a_at) / RFU NR4A2 (11747474_a_at) / Fold change /veh NR4A2 (11747474_a_at) / RFU ABCC12 (11746883_a_at) / Fold change /veh ABCC12 (11746883_a_at) / RFU TMEM136 (11760407_x_at) / Fold change /veh TMEM136 (11760407_x_at) / RFU CLDN22 /// WWC2 (11732394_at) / Fold change /veh CLDN22 /// WWC2 (11732394_at) / RFU HLA-DPB1 (11760878_x_at) / Fold change /veh HLA-DPB1 (11760878_x_at) / RFU SPINT1 (11716480_a_at) / Fold change /veh SPINT1 (11716480_a_at) / RFU GAP43 (11754022_s_at) / Fold change /veh GAP43 (11754022_s_at) / RFU A4GNT (11735810_at) / Fold change /veh A4GNT (11735810_at) / RFU PRB3 (11715151_x_at) / Fold change /veh PRB3 (11715151_x_at) / RFU TUBB4B (11761932_at) / Fold change /veh TUBB4B (11761932_at) / RFU CAPN14 (11732068_a_at) / Fold change /veh CAPN14 (11732068_a_at) / RFU TMCC2 (11721928_a_at) / Fold change /veh TMCC2 (11721928_a_at) / RFU IRGQ (11745062_a_at) / Fold change /veh IRGQ (11745062_a_at) / RFU FAM174B (11720279_a_at) / Fold change /veh FAM174B (11720279_a_at) / RFU TMPRSS4 (11748680_a_at) / Fold change /veh TMPRSS4 (11748680_a_at) / RFU FAM212B (11763350_a_at) / Fold change /veh FAM212B (11763350_a_at) / RFU PLEKHG5 (11743358_a_at) / Fold change /veh PLEKHG5 (11743358_a_at) / RFU ZSCAN30 (11745921_a_at) / Fold change /veh ZSCAN30 (11745921_a_at) / RFU CMKLR1 (11741424_a_at) / Fold change /veh CMKLR1 (11741424_a_at) / RFU LOC101060620 /// MAPK8IP1 (11723275_at) / Fold change /veh LOC101060620 /// MAPK8IP1 (11723275_at) / RFU SPTSSB (11747773_x_at) / Fold change /veh SPTSSB (11747773_x_at) / RFU PRSS12 (11739890_at) / Fold change /veh PRSS12 (11739890_at) / RFU BIN1 (11741810_x_at) / Fold change /veh BIN1 (11741810_x_at) / RFU WNT11 (11732464_a_at) / Fold change /veh WNT11 (11732464_a_at) / RFU C10orf10 (11716521_a_at) / Fold change /veh C10orf10 (11716521_a_at) / RFU C5orf56 (11738089_at) / Fold change /veh C5orf56 (11738089_at) / RFU CYB561 (11721691_x_at) / Fold change /veh CYB561 (11721691_x_at) / RFU ANKRD19P (11752326_a_at) / Fold change /veh ANKRD19P (11752326_a_at) / RFU OR2T12 /// OR2T33 /// OR2T8 (11738714_s_at) / Fold change /veh OR2T12 /// OR2T33 /// OR2T8 (11738714_s_at) / RFU VCAN (11748164_a_at) / Fold change /veh VCAN (11748164_a_at) / RFU JSRP1 (11732532_at) / Fold change /veh JSRP1 (11732532_at) / RFU KRTAP10-11 (11738290_x_at) / Fold change /veh KRTAP10-11 (11738290_x_at) / RFU MYO3A (11730013_a_at) / Fold change /veh MYO3A (11730013_a_at) / RFU EBF3 (11725865_a_at) / Fold change /veh EBF3 (11725865_a_at) / RFU CAMK2N1 (11719241_x_at) / Fold change /veh CAMK2N1 (11719241_x_at) / RFU C5orf56 (11738088_a_at) / Fold change /veh C5orf56 (11738088_a_at) / RFU OLFML3 (11715873_a_at) / Fold change /veh OLFML3 (11715873_a_at) / RFU LOC100653217 /// NTM (11731650_a_at) / Fold change /veh LOC100653217 /// NTM (11731650_a_at) / RFU MAPK11 (11762145_a_at) / Fold change /veh MAPK11 (11762145_a_at) / RFU FIZ1 (11724087_x_at) / Fold change /veh FIZ1 (11724087_x_at) / RFU OASL (11726364_x_at) / Fold change /veh OASL (11726364_x_at) / RFU SOX15 (11748057_x_at) / Fold change /veh SOX15 (11748057_x_at) / RFU CD79A (11719716_a_at) / Fold change /veh CD79A (11719716_a_at) / RFU HIST1H1D (11736915_at) / Fold change /veh HIST1H1D (11736915_at) / RFU CASKIN2 (11723855_a_at) / Fold change /veh CASKIN2 (11723855_a_at) / RFU LOC730098 (11760151_x_at) / Fold change /veh LOC730098 (11760151_x_at) / RFU OR4N2 (11742367_at) / Fold change /veh OR4N2 (11742367_at) / RFU PRRT2 (11749266_a_at) / Fold change /veh PRRT2 (11749266_a_at) / RFU SNX32 (11753110_a_at) / Fold change /veh SNX32 (11753110_a_at) / RFU CDHR5 (11726645_a_at) / Fold change /veh CDHR5 (11726645_a_at) / RFU RCAN1 (11760418_a_at) / Fold change /veh RCAN1 (11760418_a_at) / RFU FAM167A (11723789_a_at) / Fold change /veh FAM167A (11723789_a_at) / RFU FAM26E (11764081_at) / Fold change /veh FAM26E (11764081_at) / RFU ISYNA1 (11749810_s_at) / Fold change /veh ISYNA1 (11749810_s_at) / RFU ACY1 (11761880_at) / Fold change /veh ACY1 (11761880_at) / RFU 11764098_at / Fold change /veh 11764098_at / RFU SAMD14 (11745864_x_at) / Fold change /veh SAMD14 (11745864_x_at) / RFU NPB (11741838_a_at) / Fold change /veh NPB (11741838_a_at) / RFU TMPRSS6 (11731388_a_at) / Fold change /veh TMPRSS6 (11731388_a_at) / RFU KRTAP10-2 (11738614_at) / Fold change /veh KRTAP10-2 (11738614_at) / RFU ARHGAP8 /// PRR5-ARHGAP8 (11727945_x_at) / Fold change /veh ARHGAP8 /// PRR5-ARHGAP8 (11727945_x_at) / RFU KRTAP5-7 /// NADSYN1 (11734609_at) / Fold change /veh KRTAP5-7 /// NADSYN1 (11734609_at) / RFU RASL12 (11751679_a_at) / Fold change /veh RASL12 (11751679_a_at) / RFU CDKN2B (11736163_a_at) / Fold change /veh CDKN2B (11736163_a_at) / RFU PRF1 (11729649_at) / Fold change /veh PRF1 (11729649_at) / RFU, ZNF638 /// ZNF638-IT1 / Fold change vs veh, ZNF638 /// ZNF638-IT1 / RFU, PANK3 / Fold change vs veh, PANK3 / RFU, SH3YL1 / Fold change vs veh, SH3YL1 / RFU, ZEB2 / Fold change vs veh, ZEB2 / RFU, NRIP1 / Fold change vs veh, NRIP1 / RFU, PTTG1IP / Fold change vs veh, PTTG1IP / RFU, CAPN2 / Fold change vs veh, CAPN2 / RFU, MED14 / Fold change vs veh, MED14 / RFU, SNORA58 / Fold change vs veh, SNORA58 / RFU, C1orf63 / Fold change vs veh, C1orf63 / RFU, LRRFIP1 / Fold change vs veh, LRRFIP1 / RFU, NDUFAF7 / Fold change vs veh, NDUFAF7 / RFU, SLC12A2 / Fold change vs veh, SLC12A2 / RFU, IBTK / Fold change vs veh, IBTK / RFU, ESF1 / Fold change vs veh, ESF1 / Fold change vs veh, TMEM50B / RFU, TAOK1 / Fold change vs veh, TAOK1 / RFU, ACBD3 / Fold change vs veh, ACBD3 / RFU, TMA16 / Fold change vs veh, TMA16 / RFU, RWDD3 / Fold change vs veh, RWDD3 / RFU, BCAT1 / Fold change vs veh, BCAT1 / RFU, EDEM3 / Fold change vs veh, EDEM3 / RFU, TMEM33 / Fold change vs veh, TMEM33 / RFU, WDR75 / Fold change vs veh, WDR75 / RFU, AHCTF1 / Fold change vs veh, AHCTF1 / RFU, TFRC / Fold change vs veh, TFRC / RFU, ZDHHC17 / Fold change vs veh, ZDHHC17 / RFU, NOM1 / Fold change vs veh, NOM1 / RFU, ARL8B / Fold change vs veh, ARL8B / RFU, ZBTB11 / Fold change vs veh, ZBTB11 / RFU, TAMM41 / Fold change vs veh, TAMM41 / RFU, KIAA1704 /// LOC100996395 / Fold change vs veh, KIAA1704 /// LOC100996395 / RFU, ING1 / Fold change vs veh, ING1 / RFU, TRMT61B / Fold change vs veh, TRMT61B / RFU, FUBP3 / Fold change vs veh, FUBP3 / RFU, TP53 / Fold change vs veh, TP53 / RFU, TNKS2 / Fold change vs veh, TNKS2 / RFU, ZFP14 / Fold change vs veh, ZFP14 / RFU, ACTR2 / Fold change vs veh, ACTR2 / RFU, PPP3R1 / Fold change vs veh, PPP3R1 / RFU, PIK3R1 / Fold change vs veh, PIK3R1 / RFU, HNRNPA1 / Fold change vs veh, HNRNPA1 / RFU, RNF170 / Fold change vs veh, RNF170 / RFU, ZNF28 / Fold change vs veh, ZNF28 / RFU, RNGTT / Fold change vs veh, RNGTT / RFU, OGT / Fold change vs veh, OGT / RFU, BRD1 / Fold change vs veh, BRD1 / RFU, MARS / Fold change vs veh, MARS / RFU, ZNF655 / Fold change vs veh, ZNF655 / RFU, FAHD1 / Fold change vs veh, FAHD1 / RFU, BDP1 / Fold change vs veh, BDP1 / RFU, LRRCC1 / Fold change vs veh, LRRCC1 / RFU, ARID1A / Fold change vs veh, ARID1A / RFU, ZNF146 / Fold change vs veh, ZNF146 / RFU, ZNF330 / Fold change vs veh, ZNF330 / RFU, GPN3 / Fold change vs veh, GPN3 / RFU, C9orf123 / Fold change vs veh, C9orf123 / RFU, N4BP2L2 / Fold change vs veh, N4BP2L2 / RFU, ARFIP1 / Fold change vs veh, ARFIP1 / RFU, FAM179B / Fold change vs veh, FAM179B / RFU, BCL10 / Fold change vs veh, BCL10 / RFU, UHRF1BP1L / Fold change vs veh, UHRF1BP1L / RFU, BET1 / Fold change vs veh, BET1 / RFU, CNOT2 / Fold change vs veh, CNOT2 / RFU, ZNF268 / Fold change vs veh, ZNF268 / Fold change vs veh, ZNF507 / RFU, DGCR2 / Fold change vs veh, DGCR2 / RFU, WDSUB1 / Fold change vs veh, WDSUB1 / Fold change vs veh, HSP90B1 /// MIR3652 / RFU, ADSS / Fold change vs veh, ADSS / RFU, GK / Fold change vs veh, GK / RFU, ZNF148 / Fold change vs veh, ZNF148 / RFU, TAF9 / Fold change vs veh, TAF9 / RFU, SLC1A5 / Fold change vs veh, SLC1A5 / RFU, SLMO2 / Fold change vs veh, SLMO2 / RFU, ABCC4 / Fold change vs veh, ABCC4 / RFU, LOC101060439 /// RAP1B / Fold change vs veh, LOC101060439 /// RAP1B / RFU, RFX7 / Fold change vs veh, RFX7 / RFU, GTPBP10 / Fold change vs veh, GTPBP10 / RFU, CNEP1R1 / Fold change vs veh, CNEP1R1 / RFU, BIVM-ERCC5 /// ERCC5 / Fold change vs veh, BIVM-ERCC5 /// ERCC5 / RFU, ILF3 / Fold change vs veh, ILF3 / RFU 11762660_at / Fold change /veh 11762660_at / RFU VCAN (11757783_s_at) / Fold change /veh VCAN (11757783_s_at) / RFU DDX43 (11728927_at) / Fold change /veh DDX43 (11728927_at) / RFU KRT8 (11758188_x_at) / Fold change /veh KRT8 (11758188_x_at) / RFU NKD1 (11759106_at) / Fold change /veh NKD1 (11759106_at) / RFU SRD5A1 (11742802_a_at) / Fold change /veh SRD5A1 (11742802_a_at) / RFU TPSAB1 /// TPSB2 (11721975_s_at) / Fold change /veh TPSAB1 /// TPSB2 (11721975_s_at) / RFU GSTM3 (11746129_a_at) / Fold change /veh GSTM3 (11746129_a_at) / RFU IL23R (11737362_x_at) / Fold change /veh IL23R (11737362_x_at) / RFU TMEM51 (11727254_a_at) / Fold change /veh TMEM51 (11727254_a_at) / RFU PIWIL2 (11732686_x_at) / Fold change /veh PIWIL2 (11732686_x_at) / RFU ORM1 (11744905_x_at) / Fold change /veh ORM1 (11744905_x_at) / RFU CCDC152 (11743942_at) / Fold change /veh CCDC152 (11743942_at) / RFU ECM1 (11717891_a_at) / Fold change /veh ECM1 (11717891_a_at) / RFU IL23R (11748794_a_at) / Fold change /veh IL23R (11748794_a_at) / RFU TNFAIP8L3 (11732012_x_at) / Fold change /veh TNFAIP8L3 (11732012_x_at) / RFU MBOAT4 (11741988_at) / Fold change /veh MBOAT4 (11741988_at) / RFU 11764193_at / Fold change /veh 11764193_at / RFU TMEM53 (11763286_at) / Fold change /veh TMEM53 (11763286_at) / RFU MAGEB2 (11727129_at) / Fold change /veh MAGEB2 (11727129_at) / RFU TMEM200A (11744735_a_at) / Fold change /veh TMEM200A (11744735_a_at) / RFU CCDC152 (11751479_a_at) / Fold change /veh CCDC152 (11751479_a_at) / RFU FAM211A (11726209_a_at) / Fold change /veh FAM211A (11726209_a_at) / RFU RGS16 (11746705_a_at) / Fold change /veh RGS16 (11746705_a_at) / RFU VCAN (11755009_s_at) / Fold change /veh VCAN (11755009_s_at) / RFU RHOB (11743442_s_at) / Fold change /veh RHOB (11743442_s_at) / RFU RGS16 (11720943_a_at) / Fold change /veh RGS16 (11720943_a_at) / RFU RGS16 (11720944_at) / Fold change /veh RGS16 (11720944_at) / RFU, VPS4B / Fold change vs veh, VPS4B / RFU, CREB1 / Fold change vs veh, CREB1 / RFU, DNAJC13 / Fold change vs veh, DNAJC13 / RFU, GNAQ / Fold change vs veh, GNAQ / RFU, CDK5R1 / Fold change vs veh, CDK5R1 / RFU, ZRANB3 / Fold change vs veh, ZRANB3 / RFU, CUL4A / Fold change vs veh, CUL4A / RFU, CCNY / Fold change vs veh, CCNY / RFU, UFL1 / Fold change vs veh, UFL1 / RFU, COG3 / Fold change vs veh, COG3 / RFU, DIAPH2 / Fold change vs veh, DIAPH2 / RFU, SKA2 / Fold change vs veh, SKA2 / RFU, AFF3 / Fold change vs veh, AFF3 / RFU, LMF1 / Fold change vs veh, LMF1 / RFU, IPO11 / Fold change vs veh, IPO11 / RFU, DFFB / Fold change vs veh, DFFB / RFU, FOXP1 / Fold change vs veh, FOXP1 / RFU, CARD8 / Fold change vs veh, CARD8 / RFU, STRN3 / Fold change vs veh, STRN3 / RFU, ADK / Fold change vs veh, ADK / RFU, RASSF2 / Fold change vs veh, RASSF2 / RFU, WIPF1 / Fold change vs veh, WIPF1 / RFU, LARP1B / Fold change vs veh, LARP1B / RFU, RASA1 / Fold change vs veh, RASA1 / RFU, RB1 / Fold change vs veh, RB1 / RFU, PPFIA1 / Fold change vs veh, PPFIA1 / RFU, MAT2A / Fold change vs veh, MAT2A / RFU, CCT5 / Fold change vs veh, CCT5 / RFU, WDR92 / Fold change vs veh, WDR92 / RFU, CUX1 / Fold change vs veh, CUX1 / RFU, TTC7A / Fold change vs veh, TTC7A / RFU, TMEM135 / Fold change vs veh, TMEM135 / RFU, DEPTOR / Fold change vs veh, DEPTOR / RFU, CPM / Fold change vs veh, CPM / RFU, DNAJB6 / Fold change vs veh, DNAJB6 / RFU, CACNA2D3 / Fold change vs veh, CACNA2D3 / RFU, DTX4 / Fold change vs veh, DTX4 / RFU, TFCP2 / Fold change vs veh, TFCP2 / RFU, GMCL1 /// GMCL1P1 / Fold change vs veh, GMCL1 /// GMCL1P1 / RFU, AEBP2 / Fold change vs veh, AEBP2 / RFU, SNHG1 /// SNORD22 /// SNORD25 /// SNORD26 /// SNORD27 /// SNORD28 /// SNORD29 /// SNORD31 / Fold change vs veh, SNHG1 /// SNORD22 /// SNORD25 /// SNORD26 /// SNORD27 /// SNORD28 /// SNORD29 /// SNORD31 / Fold change (Aza/veh), C12orf56 (ProbeSet 11735607_a_at) / Fold change (ACY-1035/veh), C12orf56 (ProbeSet 11735607_a_at) / Fold change (Aza/veh), FGFR1OP (ProbeSet 11751329_s_at) / Fold change (ACY-1035/veh), FGFR1OP (ProbeSet 11751329_s_at) / Fold change (Aza/veh), VPS36 (ProbeSet 11739960_a_at) / Fold change (ACY-1035/veh), VPS36 (ProbeSet 11739960_a_at) / RFU SYPL1 (11715823_x_at) / Fold change /veh SYPL1 (11715823_x_at) / RFU IGFBP7 (11715501_s_at) / Fold change /veh IGFBP7 (11715501_s_at) / RFU REEP3 (11722064_at) / Fold change /veh REEP3 (11722064_at) / RFU IGLL1 (11728026_x_at) / Fold change /veh IGLL1 (11728026_x_at): dose or concentration left out as unconfirmed
Details: MV-4-11 cells, 48 hours

Nc1ccc(-c2cccs2)cc1NC(=O)c1ccc2c(c1)cc(C1CC1)n2CCN1CCOCC1 [ACY-1035]
Fold change /veh TMPRSS6 (11731388_a_at): 1.10
